Read-outs that look alike come from different tables or passages of the source. Marks after values point to notes of the source that are not given here.
What was measured:
PICV, strain An 4763 [1] = format: in vivo, Syrian hamsters
[2] = tested on: Junin virus (JUNV) vaccine strain Candid 1
PTV, Adames strain [3] = assay: microbe, parasite or virus in culture; conditions: Punta Toro virus, Vero 76, read-out: EC90 ± SD (VYR)
Vero cells = conditions: monkey
[4] = tested on: Tacaribe virus (TCRV), strain TRVL 11573
PTV, Adames strain [5] = tested on: PTV, Adames strain; parameters: species or system Syrian hamsters; conditions: hamster, in vivo
[6] = tested on: Sandfly fever virus, Naples strain (SFNV); assay: microbe, parasite or virus in culture; conditions: sandfly fever Sicilian virus, Vero 76, read-out: EC90 ± SD (VYR)
[7] = tested on: RVFV vaccine strain MP-12; assay: microbe, parasite or virus in culture; conditions: Rift Valley fever virus, Vero 76, read-out: EC50 ± SD (CPER)
PICV, strain An 4763 [8] = tested on: PICV, strain An 4763
[9] = tested on: phleboviruses (RVFV, PTV, SFNV); assay: organism not typed; format: cell-based
[10] = tested on: Sandfly fever virus, Naples strain (SFNV)
PTV, Adames strain [11] = tested on: PTV, Adames strain; parameters: species or system C57BL/6 mice; conditions: mouse, in vivo
[12] = tested on: Sandfly fever virus, Naples strain (SFNV); remark: listed apart in the source
[13] = tested on: RVFV vaccine strain MP-12
[14] = tested on: Tacaribe virus (TCRV), strain TRVL 11573; assay: microbe, parasite or virus in culture; conditions: Mammarenavirus tacaribeense, Vero 76, read-out: EC90 ± SD (VYR)
[15] = tested on: Junin virus (JUNV) vaccine strain Candid 1; assay: microbe, parasite or virus in culture; conditions: Mammarenavirus juninense, Vero, read-out: EC90 ± SD (VYR)
[16] = tested on: Junin virus (JUNV) vaccine strain Candid 1; remark: listed apart in the source
[17] = tested on: RVFV vaccine strain MP-12; remark: listed apart in the source
PICV, strain An 4763 [18] = assay: microbe, parasite or virus in culture; conditions: Pichinde virus, Vero, read-out: EC90 ± SD (VYR)
[19] = tested on: Sandfly fever virus, Naples strain (SFNV); assay: microbe, parasite or virus in culture; conditions: sandfly fever Sicilian virus, Vero 76, read-out: EC50 ± SD (CPER)
[20] = tested on: Tacaribe virus (TCRV), strain TRVL 11573; remark: listed apart in the source
PTV, Adames strain [21] = tested on: PTV, Adames strain
PICV, strain An 4763 [22] = assay: microbe, parasite or virus in culture; conditions: Pichinde virus, Vero, read-out: EC50 ± SD (CPER)
in vitro [23] = conditions: monkey, CC50 ± SD
PICV, strain An 4763 [24] = tested on: PICV, strain An 4763; remark: listed apart in the source
PTV, Adames strain [25] = assay: microbe, parasite or virus in culture; conditions: Punta Toro virus, Vero 76, read-out: EC50 ± SD (CPER)
[26] = tested on: RVFV vaccine strain MP-12; assay: microbe, parasite or virus in culture; conditions: Rift Valley fever virus, Vero 76, read-out: EC90 ± SD (VYR)
PTV, Adames strain [27] = tested on: PTV, Adames strain; remark: listed apart in the source
[28] = tested on: Junin virus (JUNV) vaccine strain Candid 1; assay: microbe, parasite or virus in culture; conditions: Mammarenavirus juninense, Vero, read-out: EC50 ± SD (CPER)
[29] = tested on: Tacaribe virus (TCRV), strain TRVL 11573; assay: microbe, parasite or virus in culture; conditions: Mammarenavirus tacaribeense, Vero 76, read-out: EC50 ± SD (CPER)
in vitro [30] = conditions: monkey, CC50 ± SD; remark: listed apart in the source
[31] = hamster, in vivo, po, 25 mg/kg/day
[32] = hamster, in vivo, po, 50 mg/kg/day
[33] = hamster, in vivo, po, 100 mg/kg/day

SMILES: NC(=O)c1nc(F)cnc1O [T-705, 6-fluoro-3-hydroxy-2-pyrazinecarboxamide]
- Potency relative to T-1106 based on ALT molar dose response (PICV, strain An 4763 [1]; hamster, in vivo): 2.6 fold
- Potency relative to T-1106 based on ED50 (PICV, strain An 4763 [1]; hamster, in vivo): 6.1 times
- Survival compared to placebo (PICV, strain An 4763 [1]; hamster, in vivo): significantly protected
- ED50 (survival) (PICV, strain An 4763 [1]; hamster, in vivo, po): 72 µmol/kg/day
- ALT ± SD (PICV, strain An 4763 [1]; [31]): 859 ± 782 international units per liter
- Mean virus titer ± SD, liver (PICV, strain An 4763 [1]; [31]): 7.6 ± 0.8 (100)
- Mean virus titer ± SD, serum (PICV, strain An 4763 [1]; [31]): 6.6 ± 1.0 (100)
- Percentage of animals with detectable virus, liver (PICV, strain An 4763 [1]; [31]): 7.6 ± 0.8 (100) %
- Percentage of animals with detectable virus, serum (PICV, strain An 4763 [1]; [31]): 6.6 ± 1.0 (100) %
- Mean virus titer ± SD, liver (PICV, strain An 4763 [1]; [32]): 5.8 ± 1.1 (100)
- Mean virus titer ± SD, serum (PICV, strain An 4763 [1]; [32]): < 3.8 ± 1.6 (80)
- Percentage of animals with detectable virus, liver (PICV, strain An 4763 [1]; [32]): 5.8 ± 1.1 (100) %
- Percentage of animals with detectable virus, serum (PICV, strain An 4763 [1]; [32]): < 3.8 ± 1.6 (80) %
- Mean virus titer ± SD, liver (PICV, strain An 4763 [1]; [33]): < 3.3 ± 0.5 (60)
- Mean virus titer ± SD, serum (PICV, strain An 4763 [1]; [33]): < 1.8 (0) ^**
- Percentage of animals with detectable virus, liver (PICV, strain An 4763 [1]; [33]): < 3.3 ± 0.5 (60) %
- Percentage of animals with detectable virus, serum (PICV, strain An 4763 [1]; [33]): < 1.8 (0) ^** %
- Survival outcome (PICV, strain An 4763 [1]; n=10): complete protection
- Animals protected (survival) (PICV, strain An 4763 [1]; n=10, 25 mg/kg/day): 70%
- Animals protected (survival) (PICV, strain An 4763 [1]; n=10, 50 mg/kg/day): 80%
- SI (CC50/EC90) [2]: >387
- EC90 (PTV, Adames strain [3]): 19 ± 11 µM
- CC50 (Vero cells): 4860 ± 409 µM
- SI (CC50/EC50) [4]: >187
- ED50 (survival) (PTV, Adames strain [5]): 112 µmol/kg/day
- Mean virus titer ± SD, liver (PTV, Adames strain [5]): < 3.9 ± 1.5 (40)
- Survival compared to placebo (PTV, Adames strain [5]): significant protection
- ALT ± SD (PTV, Adames strain [5]; po, 25 mg/kg/day): 820 ± 1148 international units per liter
- Mean virus titer ± SD, liver (PTV, Adames strain [5]; po, 25 mg/kg/day): < 5.9 ± 1.8 (80)
- Mean virus titer ± SD, serum (PTV, Adames strain [5]; po, 25 mg/kg/day): < 5.4 ± 3.4 (60)
- Percentage of animals with detectable virus, liver (PTV, Adames strain [5]; po, 25 mg/kg/day): < 5.9 ± 1.8 (80) %
- Percentage of animals with detectable virus, serum (PTV, Adames strain [5]; po, 25 mg/kg/day): < 5.4 ± 3.4 (60) %
- ALT ± SD (PTV, Adames strain [5]; po, 50 mg/kg/day): 52 ± 79 international units per liter
- Mean virus titer ± SD, liver (PTV, Adames strain [5]; po, 50 mg/kg/day): < 3.6 ± 1.7 (40)
- Percentage of animals with detectable virus, liver (PTV, Adames strain [5]; po, 50 mg/kg/day): < 3.6 ± 1.7 (40) %
- ALT ± SD (PTV, Adames strain [5]; po, 100 mg/kg/day): 38 ± 19 international units per liter
- Mean virus titer ± SD, serum (PTV, Adames strain [5]; po, 100 mg/kg/day): < 3.1 ± 1.9 (40)
- Percentage of animals with detectable virus, liver (PTV, Adames strain [5]; po, 100 mg/kg/day): < 3.9 ± 1.5 (40) %
- Percentage of animals with detectable virus, serum (PTV, Adames strain [5]; po, 100 mg/kg/day): < 3.1 ± 1.9 (40) %
- EC90 [6]: 3 ± 1 µM
- EC50 [7]: 27 ± 5 µM
- SI (CC50/EC50) (PICV, strain An 4763 [8]): 194
- Inhibitory concentrations, range [9]: 3 to 55 µM
- EC50 ([9]; read-out: EC50 values, range (CPE reduction assay)): 27 to 55 µM
- EC90 ([9]; read-out: EC90 values, range (VYR)): 3 to 19 µM
- SI (CC50/EC90) [10]: 1952
- ED50 (survival) (PTV, Adames strain [11]): 159 µmol/kg/day
- SI (CC50/EC50) [12]: 195
- SI (CC50/EC90) [13]: >530
- EC90 [14]: 12 ± 4 µM
- EC90 [15]: 14 ± 3 µM
- SI (CC50/EC50) [16]: >285
- SI (CC50/EC50) [17]: >236
- EC90 (PICV, strain An 4763 [18]): 24 ± 5 µM
- EC50 [19]: 30 ± 15 µM
- SI (CC50/EC90) [20]: >405
- SI (CC50/EC50) (PTV, Adames strain [21]): >68
- EC50 (PICV, strain An 4763 [22]): 25 ± 6 µM
- CC50 (in vitro [23]): > 5410 µM
- SI (CC50/EC90) (PICV, strain An 4763 [24]): 202
- EC50 (PTV, Adames strain [25]): 55 ± 35 µM
- EC90 [26]: 12 ± 4 µM
- SI (CC50/EC90) (PTV, Adames strain [27]): >197
- EC50 [28]: 19 ± 5 µM
- EC50 [29]: 26 ± 13 µM
- CC50 (in vitro [30]): > 6360 µM
